These are literature values, as cited in patent publication US7135196B2, “Iron compositions” (Vitra Pharmaceuticals Limited, priority 2000, dated 2006).

Take `O=C([O-])/C=C/C(=O)[O-].[Fe+2]` [fumarate, ferrous fumarate]: the solubility in water entry is “poorly and slowly soluble”.
